Data on ten compounds can be found in paper PMC2802001, “Binding of Natural and Synthetic Polyphenols to Human Dihydrofolate Reductase” (International Journal of Molecular Sciences, 2009).

“And” between values parts separate entries of the source, which are not always exact repeats. Equal values may be shown once. “Also recorded” adds a separate entry of the source.

In data set [1] the target is T1, human DHFR (Homo sapiens, UniProt P00374).
T1 construct: purchased Sigma
T1 sequence (P00374 1-187): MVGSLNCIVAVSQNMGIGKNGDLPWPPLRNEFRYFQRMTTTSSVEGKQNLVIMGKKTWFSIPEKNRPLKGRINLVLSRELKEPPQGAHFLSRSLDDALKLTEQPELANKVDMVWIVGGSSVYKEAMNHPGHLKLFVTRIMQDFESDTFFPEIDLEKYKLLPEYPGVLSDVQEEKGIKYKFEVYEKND
As to the kind of experiment: Fluorescence titration (quenching of tryptophan fluorescence) for binding to free DHFR. Conditions: for Kd / Binding to human DHFR (effect on enzyme fluorescence), in words: fluorescence quenching; for Kd: excitation 290 nm, enzyme 0.1 μM, pH 7.4, read-out: KD, dissociation constant for binding to human DHFR. The procedure:
Highly purified tea polyphenols EGCG (>95%), ECG (>98%), EGC (>98%), and EC (>98%) were purchased from Sigma Chemical Co. (Madrid, Spain). Qgal, Qglc, Qrha and Qxyl were form Fluka (Madrid, Spain). […] To synthesize TMECG-QM, a TMECG solution (0.5 mM) in phosphate buffered saline (PBS), pH 7.0, was alkalinize at pH 8.5 with NaOH. The reaction was followed spectrophotometrically at 470 nm and, after completion, the sample was neutralized by adding HCl. Recombinant human DHFR was purchased from Sigma and its concentration was determined by MTX titration of enzyme fluorescence.
The fluorescence of DHFR is reduced on binding of substrates and inhibitors, and this property may be used as a convenient method for determining both the enzyme concentration and the dissociation constants of enzyme-ligands complexes. Dissociation constants for the binding of polyphenols to free DHFR were determined by fluorescence titration in an automatic-scanning Perkin-Elmer LS50B spectrofluorimeter with 1.0 cm light path cells and equipped with a 150W xenon (XBO) light source. The formation of the binary complex between the enzyme and the ligand was followed by measuring the quenching of tryptophan fluorescence of the enzyme upon addition of microliter volumes of a concentrated stock solution of ligand. Fluorescence emission spectra were recorded when DHFR fluorescence was excited at 290 nm. All measurements were corrected for dilution and the data from the titration curves were fitted as described previously. Titrations were performed in a buffer containing 2-(N-morpholino)ethanesulfonic acid (Mes, 0.025 M), sodium acetate (0.025 M), tris(hydroxymethyl)aminomethane (Tris 0.05 M), and NaCl (0.1 M), at pH 7.4.

Data set [2] deals with T1, human DHFR. As to the kind of experiment: Human DHFR activity assayed in the presence of tea catechins. Format: biochemical. The procedure:
In order to detect which components of these extracts were responsible for such inhibition, human DHFR activity was assayed in the presence of EC, EGC, ECG or EGCG. […] The effective binding of ECG to free human DHFR was determined by following the decrease in enzyme fluorescence that occurs after formation of the enzyme-inhibitor complex (Figure 3).

Details of data set [3]: method as in PMID 18324763. Conditions: cited from earlier work.
Data set [4] is described as follows: Stability of TMECG in solution at neutral and alkaline pH. It is filed as physicochemical. How it is done:
Despite the excellent anticancer properties of tea catechins, they have at least one great limitation: their poor bioavailability. The reduced availability of catechins is related with their low stability in neutral or slightly alkaline solutions and their poor ability to cross cellular membranes. […] This synthetic catechin also bound human DHFR with an effective dissociation constant of 2.1 ± 0.2 μM (Figure 5; Table 1). […] By analogy with the oxidation of quercetin in alkaline solution [19], the proposed structure for this compound is depicted in Figure 6 and was identified as a quinone methide (TMECG-QM) with an open structure.
Highly purified tea polyphenols EGCG (>95%), ECG (>98%), EGC (>98%), and EC (>98%) were purchased from Sigma Chemical Co. (Madrid, Spain). Qgal, Qglc, Qrha and Qxyl were form Fluka (Madrid, Spain). TMECG was successfully synthesized (70% recovery) from catechin with the subsequent inversion of the stereochemistry at C-3 and by reaction of with 3,4,5-trimethoxybenzoylchloride (Sigma). To synthesize TMECG-QM, a TMECG solution (0.5 mM) in phosphate buffered saline (PBS), pH 7.0, was alkalinize at pH 8.5 with NaOH. The reaction was followed spectrophotometrically at 470 nm and, after completion, the sample was neutralized by adding HCl. Recombinant human DHFR was purchased from Sigma and its concentration was determined by MTX titration of enzyme fluorescence.

Data set [5] has as its system different cancer cell lines. Details: method as in PMID 18324763. Conditions: cited from earlier work.
The next data set deals with chicken liver DHFR. Further details: method as in PMID 15781612. Conditions: cited from earlier work.
In a further data set the test system is bovine liver DHFR. Further details: method as in PMID 15781612. Conditions: cited from earlier work.

As a reminder, the Kd is the concentration at which binding is half-saturated. For the compound `CC1OC(Oc2c(-c3ccc(O)c(O)c3)oc3cc(O)cc(O)c3c2=O)C(O)C(O)C1O` (stereo not drawn) [Qrha, quercetin-3-rhamnoside], the dissociation constant (Kd) on human DHFR [1] worked out at 17200 ± 2400 nM.
Turning to `COc1cc(C(=O)O[C@H](Cc2c(O)cc(O)cc2O)/C(O)=C2/C=CC(=O)C(O)=C2)cc(OC)c1OC` [TMECG-QM], the “Affinity for human DHFR relative to EGCG, ECG or TMECG” value at human DHFR [1] (compared with EGCG, ECG or TMECG) was “more than two-order of magnitude more strongly”. Also, the “Affinity for human DHFR relative to MTX” value at human DHFR [1] (compared with MTX) is “forty-times less”.
Turning to `Oc1cc(O)c2c(c1)OC(c1cc(O)c(O)c(O)c1)C(O)C2` (single isomer, unassigned; (-)) [EGC, (-)-epigallocatechin], the “Inhibition of human DHFR activity, in words” value (shortened to “Inhibition … in words”) on human DHFR [2] is “did not inhibit”. In addition, the “Binding to human DHFR (effect on enzyme fluorescence), in words” value on human DHFR [1] was “did not bind”.
For the compound `O=c1c(O[C@@H]2O[C@H](CO)[C@H](O)[C@H](O)[C@H]2O)c(-c2ccc(O)c(O)c2)oc2cc(O)cc(O)c12` [Qgal, quercetin-3-D-galactoside], the dissociation constant (Kd) at human DHFR [1] is 22800 ± 3200 nM.
Take `COc1cc(C(=O)O[C@@H]2Cc3c(O)cc(O)cc3OC2c2ccc(O)c(O)c2)cc(OC)c1OC` (stereo partly drawn) [TMECG, 3-O-(3,4,5-trimethoxybenzoyl)-(-)-epicatechin]: the Bioavailability in vitro result in data set [3] is listed as “high bioavailability in vitro”. In data set [4] (alkaline pH, band at 470 nm), the “Stability at alkaline pH” value is listed as “rapidly evolves to an orange compound”. For the same compound, the “Stability at neutral pH” value in data set [4] (neutral pH) was “highly stable”. On human DHFR [1], the Kd was 2100 ± 200 nM. Also, the Antiproliferative activity entry in data set [5] is on record as “significant antiproliferative activity”.
As to `O=c1c(OC2OCC(O)C(O)C2O)c(-c2ccc(O)c(O)c2)oc2cc(O)cc(O)c12` [Qxyl, quercetin-3-D-xyloside], at human DHFR [1], the equilibrium dissociation constant (Kd) was 600 nM and 590 nM.
As to `O=c1c(O[C@@H]2O[C@H](CO)[C@@H](O)[C@H](O)[C@H]2O)c(-c2ccc(O)c(O)c2)oc2cc(O)cc(O)c12` [Qglc, quercetin-3-β-D-glucoside], on human DHFR [1], the Kd came out at 102000 ± 9000 nM.
As to `O=C(O[C@@H]1Cc2c(O)cc(O)cc2O[C@@H]1c1cc(O)c(O)c(O)c1)c1cc(O)c(O)c(O)c1` [EGCG, (-)-epigallocatechin gallate], at human DHFR [2], the “Inhibition … in words” value is listed as “potent inhibitors”. Besides, the “Type of inhibition of DHF reduction” value is “classical, reversible, competitive inhibitor” with chicken liver DHFR and “slow-binding inhibitor” in the data set with bovine liver DHFR. In addition, the dissociation constant Kd at human DHFR [1] is 900 nM and 920 nM.
With `O=C(OC1Cc2c(O)cc(O)cc2OC1c1ccc(O)c(O)c1)c1cc(O)c(O)c(O)c1` (single isomer, unassigned; (-)) [ECG, (-)-epicatechin gallate], the “Inhibition … in words” value on human DHFR [2] is on record as “potent inhibitors”. In addition, the dissociation constant (Kd) on human DHFR [1] was 1800 nM and 1780 nM.
On to `Oc1cc(O)c2c(c1)O[C@H](c1ccc(O)c(O)c1)[C@H](O)C2` [EC, (-)-epicatechin], for which the “Inhibition … in words” value at human DHFR [2] was “did not inhibit”. At human DHFR [1], the “Binding to human DHFR (effect on enzyme fluorescence), in words” value is on record as “did not modify the emission spectra; also recorded: did not bind”.
